# In patent US20230085307A1, “PYRIDAZINONE COMPOUND AND HERBICIDE” (NISSAN CHEMICAL CORPORATION, priority 2019, published 2023):
# Tests used:
# late watergrass = experiment: Test Example 1: herbicidal activity, application before weed generation under submerged conditions (Table 16, symbol A); assay type: in vivo, late watergrass (Echinochloa oryzicola); conditions: amount of applied herbicide 320 g/ha
# Outline: (§1)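 Emulsion formulation, water-diluted to set dose, was put onto the flooded surface (4 cm depth, alluvial soil) the same day weeds were sown and 2.5-leaf rice transplanted. After 3 weeks at 25-30 °C under glass, each species was rated 0 (≤5% kill) to 5 (≥90% kill).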
# Japanese bulrush = experiment: Test Example 1: herbicidal activity, application before weed generation under submerged conditions (Table 16, symbol B); assay type: in vivo, Japanese bulrush (Schoenoplectus juncoides); conditions: amount of applied herbicide 320 g/ha
# Outline: as §1
# oval-leafed pondweed = experiment: Test Example 1: herbicidal activity, application before weed generation under submerged conditions (Table 16, symbol C); assay type: in vivo, oval-leafed pondweed (Monochoria vaginalis); conditions: amount of applied herbicide 320 g/ha
# Outline: as §1
# barnyard grass [1] = experiment: Test Example 3: herbicidal effect by foliage application, Wagner pot (Table 18, symbol H); assay type: in vivo, barnyard grass (Echinochloa crus-galli); conditions: 320 g/ha
# Outline: (§2)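 Plants were sown in alluvial soil held under 0.1–0.5 cm standing water and grown 14 days in a greenhouse at 25–30 °C. An emulsifiable formulation, water-diluted to the set dose, was then sprayed onto the foliage, and effects were scored three weeks later using previously defined criteria.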
# Chinese sprangletop = experiment: Test Example 3: herbicidal effect by foliage application, Wagner pot (Table 18, symbol D); assay type: in vivo, chinese sprangletop (Leptochloa chinensis); conditions: 320 g/ha
# Outline: as §2
# rice flat sedge = experiment: Test Example 3: herbicidal effect by foliage application, Wagner pot (Table 18, symbol E); assay type: in vivo, rice flat sedge (Cyperus iria); conditions: 320 g/ha
# Outline: as §2
# southern crabgrass [2] = experiment: Test Example 4: herbicidal effect by soil treatment (Table 19, symbol F); assay type: in vivo, southern crabgrass (Digitaria ciliaris); conditions: amount of applied herbicide 320 g/ha
# Outline: (§3)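 Step 1: sow seeds in sterilized diluvial soil, cover ~1.5 cm. Step 2: spray diluted emulsion onto soil surface at predetermined rate. Step 3: greenhouse, 25–30° C, three weeks. Step 4: grade effect on each plant by earlier criteria.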
# green foxtail [3] = experiment: Test Example 4: herbicidal effect by soil treatment (Table 19, symbol G); assay type: in vivo, green foxtail (Setaria viridis); conditions: amount of applied herbicide 320 g/ha
# Outline: as §3
# barnyard grass [4] = experiment: Test Example 4: herbicidal effect by soil treatment (Table 19, symbol H); assay type: in vivo, barnyard grass (Echinochloa crus-galli); conditions: amount of applied herbicide 320 g/ha
# Outline: as §3
# wild oat [5] = experiment: Test Example 4: herbicidal effect by soil treatment (Table 19, symbol I); assay type: in vivo, wild oat (Avena fatua); conditions: amount of applied herbicide 320 g/ha
# Outline: as §3
# blackgrass [6] = experiment: Test Example 4: herbicidal effect by soil treatment (Table 19, symbol J); assay type: in vivo, blackgrass (Alopecurus myosuroides); conditions: amount of applied herbicide 320 g/ha
# Outline: as §3
# Italian ryegrass [7] = experiment: Test Example 4: herbicidal effect by soil treatment (Table 19, symbol K); assay type: in vivo, Italian ryegrass (Lolium multiflorum); conditions: amount of applied herbicide 320 g/ha
# Outline: as §3
# windgrass [8] = experiment: Test Example 4: herbicidal effect by soil treatment (Table 19, symbol L); assay type: in vivo, windgrass (Apera spica-venti); conditions: amount of applied herbicide 320 g/ha
# Outline: as §3
# velvetleaf [9] = experiment: Test Example 4: herbicidal effect by soil treatment (Table 19, symbol M); assay type: in vivo, velvetleaf (Abutilon theophrasti); conditions: amount of applied herbicide 320 g/ha
# Outline: as §3
# redroot pigweed [10] = experiment: Test Example 4: herbicidal effect by soil treatment (Table 19, symbol N); assay type: in vivo, redroot pigweed (Amaranthus retroflexus); conditions: amount of applied herbicide 320 g/ha
# Outline: as §3
# lambsquarters [11] = experiment: Test Example 4: herbicidal effect by soil treatment (Table 19, symbol O); assay type: in vivo, lambsquarters (Chenopodium album); conditions: amount of applied herbicide 320 g/ha
# Outline: as §3
# chickweed [12] = experiment: Test Example 4: herbicidal effect by soil treatment (Table 19, symbol P); assay type: in vivo, common chickweed (Stellaria media); conditions: amount of applied herbicide 320 g/ha
# Outline: as §3
# false cleavers [13] = experiment: Test Example 4: herbicidal effect by soil treatment (Table 19, symbol Q); assay type: in vivo, false cleavers (Galium spurium); conditions: amount of applied herbicide 320 g/ha
# Outline: as §3
# persian speedwell [14] = experiment: Test Example 4: herbicidal effect by soil treatment (Table 19, symbol R); assay type: in vivo, Persian speedwell (Veronica persica); conditions: amount of applied herbicide 320 g/ha
# Outline: as §3
# southern crabgrass [15] = experiment: Test Example 5: herbicidal effect by foliage application, plastic box (Table 20, symbol F); assay type: in vivo, southern crabgrass (Digitaria ciliaris); conditions: foliage application, 320 g/ha, three weeks after application
# Outline: (§4)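 Foliar spray test: emulsion formulation diluted in water to a set application rate, sprayed onto 14-day-old plants raised in diluvial soil at 25° C to 30° C under glass. Both herbicidal effect and crop effect rated visually three weeks later.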
# green foxtail [16] = experiment: Test Example 5: herbicidal effect by foliage application, plastic box (Table 20, symbol G); assay type: in vivo, green foxtail (Setaria viridis); conditions: foliage application, 320 g/ha, three weeks after application
# Outline: as §4
# barnyard grass [17] = experiment: Test Example 5: herbicidal effect by foliage application, plastic box (Table 20, symbol H); assay type: in vivo, barnyard grass (Echinochloa crus-galli); conditions: foliage application, 320 g/ha, three weeks after application
# Outline: as §4
# wild oat [18] = experiment: Test Example 5: herbicidal effect by foliage application, plastic box (Table 20, symbol I); assay type: in vivo, wild oat (Avena fatua); conditions: foliage application, 320 g/ha, three weeks after application
# Outline: as §4
# blackgrass [19] = experiment: Test Example 5: herbicidal effect by foliage application, plastic box (Table 20, symbol J); assay type: in vivo, blackgrass (Alopecurus myosuroides); conditions: foliage application, 320 g/ha, three weeks after application
# Outline: as §4
# Italian ryegrass [20] = experiment: Test Example 5: herbicidal effect by foliage application, plastic box (Table 20, symbol K); assay type: in vivo, Italian ryegrass (Lolium multiflorum); conditions: foliage application, 320 g/ha, three weeks after application
# Outline: as §4
# windgrass [21] = experiment: Test Example 5: herbicidal effect by foliage application, plastic box (Table 20, symbol L); assay type: in vivo, windgrass (Apera spica-venti); conditions: foliage application, 320 g/ha, three weeks after application
# Outline: as §4
# velvetleaf [22] = experiment: Test Example 5: herbicidal effect by foliage application, plastic box (Table 20, symbol M); assay type: in vivo, velvetleaf (Abutilon theophrasti); conditions: foliage application, 320 g/ha, three weeks after application
# Outline: as §4
# redroot pigweed [23] = experiment: Test Example 5: herbicidal effect by foliage application, plastic box (Table 20, symbol N); assay type: in vivo, redroot pigweed (Amaranthus retroflexus); conditions: foliage application, 320 g/ha, three weeks after application
# Outline: as §4
# lambsquarters [24] = experiment: Test Example 5: herbicidal effect by foliage application, plastic box (Table 20, symbol O); assay type: in vivo, lambsquarters (Chenopodium album); conditions: foliage application, 320 g/ha, three weeks after application
# Outline: as §4
# chickweed [25] = experiment: Test Example 5: herbicidal effect by foliage application, plastic box (Table 20, symbol P); assay type: in vivo, common chickweed (Stellaria media); conditions: foliage application, 320 g/ha, three weeks after application
# Outline: as §4
# false cleavers [26] = experiment: Test Example 5: herbicidal effect by foliage application, plastic box (Table 20, symbol Q); assay type: in vivo, false cleavers (Galium spurium); conditions: foliage application, 320 g/ha, three weeks after application
# Outline: as §4
# persian speedwell [27] = experiment: Test Example 5: herbicidal effect by foliage application, plastic box (Table 20, symbol R); assay type: in vivo, Persian speedwell (Veronica persica); conditions: foliage application, 320 g/ha, three weeks after application
# Outline: as §4
smiles,measurement,setting,value
Cc1ccc2c(-c3c(O)c(C)nn(C)c3=O)c(-c3ccc4c(c3)OCCO4)sc2c1 [3-059],"Herbicidal effect, A: late watergrass",late watergrass,2 (Herbicidal rate of 20% or more and less than 40%)
same,"Herbicidal effect, B: Japanese bulrush",Japanese bulrush,1 (Herbicidal rate of 5% or more and less than 20%)
same,"Herbicidal effect, C: oval-leafed pondweed",oval-leafed pondweed,2 (Herbicidal rate of 20% or more and less than 40%)
same,herbicidal effect on barnyard grass (H),barnyard grass [1],4 (Herbicidal rate of 70% or more and less than 90%)
same,herbicidal effect on Chinese sprangletop (D),Chinese sprangletop,0 (Herbicidal rate of 5% or less (almost no effect))
same,herbicidal effect on rice flat sedge (E),rice flat sedge,4 (Herbicidal rate of 70% or more and less than 90%)
same,"F: southern crabgrass, herbicidal effect grade",southern crabgrass [2],0 (Herbicidal rate of 5% or less (almost no effect))
same,"G: green foxtail, herbicidal effect grade",green foxtail [3],0 (Herbicidal rate of 5% or less (almost no effect))
same,"H: barnyard grass, herbicidal effect grade",barnyard grass [4],0 (Herbicidal rate of 5% or less (almost no effect))
same,"I: wild oat, herbicidal effect grade",wild oat [5],0 (Herbicidal rate of 5% or less (almost no effect))
same,"J: blackgrass, herbicidal effect grade",blackgrass [6],0 (Herbicidal rate of 5% or less (almost no effect))
same,"K: Italian ryegrass, herbicidal effect grade",Italian ryegrass [7],0 (Herbicidal rate of 5% or less (almost no effect))
same,"L: windgrass, herbicidal effect grade",windgrass [8],0 (Herbicidal rate of 5% or less (almost no effect))
same,"M: velvetleaf, herbicidal effect grade",velvetleaf [9],0 (Herbicidal rate of 5% or less (almost no effect))
same,"N: redroot pigweed, herbicidal effect grade",redroot pigweed [10],0 (Herbicidal rate of 5% or less (almost no effect))
same,"O: lambsquarters, herbicidal effect grade",lambsquarters [11],0 (Herbicidal rate of 5% or less (almost no effect))
same,"P: chickweed, herbicidal effect grade",chickweed [12],0 (Herbicidal rate of 5% or less (almost no effect))
same,"Q: false cleavers, herbicidal effect grade",false cleavers [13],0 (Herbicidal rate of 5% or less (almost no effect))
same,"R: persian speedwell, herbicidal effect grade",persian speedwell [14],5 (Herbicidal rate of 90% or more (almost completely withered))
same,"F: southern crabgrass, herbicidal effect grade",southern crabgrass [15],0 (Herbicidal rate of 5% or less (almost no effect))
same,"G: green foxtail, herbicidal effect grade",green foxtail [16],0 (Herbicidal rate of 5% or less (almost no effect))
same,"H: barnyard grass, herbicidal effect grade",barnyard grass [17],0 (Herbicidal rate of 5% or less (almost no effect))
same,"I: wild oat, herbicidal effect grade",wild oat [18],0 (Herbicidal rate of 5% or less (almost no effect))
same,"J: blackgrass, herbicidal effect grade",blackgrass [19],0 (Herbicidal rate of 5% or less (almost no effect))
same,"K: Italian ryegrass, herbicidal effect grade",Italian ryegrass [20],4 (Herbicidal rate of 70% or more and less than 90%)
same,"L: windgrass, herbicidal effect grade",windgrass [21],0 (Herbicidal rate of 5% or less (almost no effect))
same,"M: velvetleaf, herbicidal effect grade",velvetleaf [22],0 (Herbicidal rate of 5% or less (almost no effect))
same,"N: redroot pigweed, herbicidal effect grade",redroot pigweed [23],0 (Herbicidal rate of 5% or less (almost no effect))
same,"O: lambsquarters, herbicidal effect grade",lambsquarters [24],0 (Herbicidal rate of 5% or less (almost no effect))
same,"P: chickweed, herbicidal effect grade",chickweed [25],5 (Herbicidal rate of 90% or more (almost completely withered))
same,"Q: false cleavers, herbicidal effect grade",false cleavers [26],2 (Herbicidal rate of 20% or more and less than 40%)
same,"R: persian speedwell, herbicidal effect grade",persian speedwell [27],5 (Herbicidal rate of 90% or more (almost completely withered))
